In ChEMBL document CHEMBL1649327, “In vitro antimicrobial activity and mutant prevention concentration of colistin against Acinetobacter baumannii” (Antimicrob Agents Chemother, 2010):
In brackets after ≈: the same amount, converted by molar mass.

Key:
Acinetobacter baumannii [1] = assay: Antimicrobial activity against Acinetobacter baumannii assessed as resistant isolate by broth dilution method; assay type: functional
Acinetobacter baumannii [2] = assay: Antimicrobial activity against Acinetobacter baumannii by broth dilution method; assay type: functional
Acinetobacter baumannii [3] = assay: Antimicrobial activity against Acinetobacter baumannii assessed as susceptible isolate by broth dilution method; assay type: functional
Homo sapiens [4] = assay: Cmax in patient at 225 mg, iv every 8 hrs for 2 days; assay type: ADME, organism-based; parameters: dose 225 mg, route intravenous; details: in vivo
Homo sapiens [5] = assay: Cmax in patient at 225 mg, iv every 12 hrs for 2 days; assay type: ADME, organism-based; parameters: dose 225 mg, route intravenous; details: in vivo
Acinetobacter baumannii [6] = assay: Antimicrobial activity against Acinetobacter baumannii assessed as susceptible isolate by broth dilution method in presence of cilastatin; assay type: functional
Acinetobacter baumannii [7] = assay: Antimicrobial activity against Acinetobacter baumannii assessed as resistant isolate by broth dilution method in presence of cilastatin; assay type: functional
Acinetobacter baumannii [8] = assay: Antimicrobial activity against Acinetobacter baumannii by broth dilution method in presence of cilastatin; assay type: functional
Acinetobacter baumannii [9] = assay: Antimicrobial activity against Acinetobacter baumannii assessed as resistant isolate by broth dilution method in presence of beta-lactamase inhibitor Sulbactam; assay type: functional
Acinetobacter baumannii [10] = assay: Antimicrobial activity against Acinetobacter baumannii by broth dilution method in presence of beta-lactamase inhibitor Sulbactam; assay type: functional
Acinetobacter baumannii [11] = assay: Ratio of mutant prevention concentration for Acinetobacter baumannii to MIC for Acinetobacter baumannii; assay type: functional, organism-based
Acinetobacter baumannii [12] = assay: Antimicrobial activity against Acinetobacter baumannii assessed as mutant prevention concentration; assay type: functional, organism-based
Acinetobacter baumannii [13] = assay: Antimicrobial activity against Acinetobacter baumannii assessed as mutant prevention concentration require for 90% of isolates; assay type: functional, organism-based
Acinetobacter baumannii [14] = assay: Antimicrobial activity against Acinetobacter baumannii assessed as susceptible isolate by broth dilution method in presence of beta-lactamase inhibitor Sulbactam; assay type: functional

Row | Compound | Activity (Acinetobacter baumannii [1]) [%] | MIC50 (Acinetobacter baumannii [2]) [µg/mL] | MIC90 (Acinetobacter baumannii [2]) [µg/mL] | Activity (Acinetobacter baumannii [3]) [%] | other results
1 | CCN[C@@H]1C[C@H](N)[C@@H](O[C@H]2OC(CN)=CC[C@H]2N)[C@H](O)[C@H]1O[C@H]1OC[C@](C)(O)[C@H](NC)[C@H]1O [NETILMICIN] | 75.7 | > 128 | > 128 | 20 | –
2 | C[C@@H](O)[C@H]1C(=O)N2C(C(=O)O)=C(S[C@@H]3CN[C@H](C(=O)N(C)C)C3)[C@H](C)[C@H]12 [MEROPENEM] | 77.1 | 32 (≈ 83.4 µM) | 64 (≈ 167 µM) | 22.9 | –
3 | COLISTIN [listing 1 of 2 here] | – | – | – | – | Cmax (Homo sapiens [4]): 2930 ng/mL; Cmax (Homo sapiens [5]): 2930 ng/mL
4 | C[C@@H](O)[C@H]1C(=O)N2C(C(=O)O)=C(SCCNC=N)C[C@H]12 [IMIPENEM ANHYDROUS] | – | – | – | – | Activity (Acinetobacter baumannii [6]): 21.4%; Activity (Acinetobacter baumannii [7]): 75.7%; MIC50 (Acinetobacter baumannii [8]): 16 µg/mL; MIC90 (Acinetobacter baumannii [8]): 128 µg/mL
5 | O=C(O)c1cn(C2CC2)c2cc(N3CCNCC3)c(F)cc2c1=O [CIPROFLOXACIN] | 82.9 | – | – | 15.7 | –
6 | NCC[C@H](O)C(=O)N[C@@H]1C[C@H](N)[C@@H](O[C@H]2O[C@H](CN)[C@@H](O)[C@H](O)[C@H]2O)[C@H](O)[C@H]1O[C@H]1O[C@H](CO)[C@@H](O)[C@H](N)[C@H]1O [AMIKACIN] | 71.4 | > 128 | > 128 | 28.6 | –
7 | CC1(C)S[C@@H]2[C@H](NC(=O)[C@H](N)c3ccccc3)C(=O)N2[C@H]1C(=O)O [AMPICILLIN] | – | – | – | – | Activity (Acinetobacter baumannii [9]): 81.4%; MIC50 (Acinetobacter baumannii [10]): 128 µg/mL; MIC90 (Acinetobacter baumannii [10]): > 128 µg/mL
8 | COLISTIN [listing 2 of 2 here] | 0 | 1 | 1 | 100 | Ratio (Acinetobacter baumannii [11]): 128; MPC (Acinetobacter baumannii [12]): > 128 µg/mL; MPC (Acinetobacter baumannii [13]): > 128 µg/mL
9 | CCN1CCN(C(=O)N[C@@H](C(=O)N[C@@H]2C(=O)N3C(C(=O)O)=C(CSc4nnnn4C)CS[C@H]23)c2ccc(O)cc2)C(=O)C1=O [CEFOPERAZONE] | – | – | – | – | Activity (Acinetobacter baumannii [9]): 81.4%; MIC50 (Acinetobacter baumannii [10]): > 128 µg/mL; MIC90 (Acinetobacter baumannii [10]): > 128 µg/mL; Activity (Acinetobacter baumannii [14]): 17.2%
10 | CCN1CCN(C(=O)N[C@@H](C(=O)N[C@@H]2C(=O)N3[C@@H]2SC(C)(C)[C@@H]3C(=O)O)c2ccccc2)C(=O)C1=O [PIPERACILLIN] | 82.9 | 128 (≈ 247 µM) | > 128 | 10 | Activity (Acinetobacter baumannii [9]): 71.4%; MIC50 (Acinetobacter baumannii [10]): > 128 µg/mL; MIC90 (Acinetobacter baumannii [10]): > 128 µg/mL; Activity (Acinetobacter baumannii [14]): 17.2%
11 | CO/N=C(\C(=O)N[C@@H]1C(=O)N2C(C(=O)[O-])=C(C[N+]3(C)CCCC3)CS[C@H]12)c1csc(N)n1 | 81.4 | – | – | 15.7 | –
12 | C[C@H]1COc2c(N3CCN(C)CC3)c(F)cc3c(=O)c(C(=O)O)cn1c23.C[C@H]1COc2c(N3CCN(C)CC3)c(F)cc3c(=O)c(C(=O)O)cn1c23.O [LEVOFLOXACIN] | 32.8 | 4 | 16 | 38.6 | –
13 | CC(C)(O/N=C(\C(=O)N[C@@H]1C(=O)N2C(C(=O)[O-])=C(C[n+]3ccccc3)CS[C@H]12)c1csc(N)n1)C(=O)O [CEFTAZIDIME] | 77.1 | > 128 | > 128 | 17.2 | –
